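How tested: cells in 96-well plates exposed to compound for 48 hours at five concentrations. The concentration for 50% growth inhibition is given as GI50.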 The source made the active and inactive calls. No stated cut-off is given here; in the data, active = GI50 up to about 1.1 µM and inactive = higher.
What was measured:
Experiment in all cases: NCI-60 cell line screen, 48 h
[1] = system: CCRF-CEM
[2] = system: PC-3
[3] = system: A498
[4] = system: SF-539
[5] = system: OVCAR-4
[6] = system: OVCAR-3
[7] = system: NCI-H226
[8] = system: NCI-H522
[9] = system: MOLT-4
[10] = system: M14
[11] = system: ACHN
[12] = system: UACC-257
[13] = system: SF-268
[14] = system: SR
[15] = system: UO-31
[16] = system: KM12
[17] = system: OVCAR-5
[18] = system: A549
[19] = system: TK-10

Compound | GI50 [1] | GI50 [2] | GI50 [3] | GI50 [4] | GI50 [5] | GI50 [6] | GI50 [7] | GI50 [8] | GI50 [9] | GI50 [10] | GI50 [11] | GI50 [12] | GI50 [13] | GI50 [14] | GI50 [15] | GI50 [16] | GI50 [17] | GI50 [18] | GI50 [19]
Cc1cccc2c(N)c3cccc(C(=O)NCC[N+]4(Cc5ccc([N+](=O)[O-])cc5)CCOCC4)c3nc12 | 26.1 µM (inactive) | 40.4 µM (inactive) | 42.2 µM (inactive) | 24.8 µM (inactive) | 61.9 µM (inactive) | 61.1 µM (inactive) | 41 µM (inactive) | 13.5 µM (inactive) | 13.5 µM (inactive) | 71.8 µM (inactive) | 29 µM (inactive) | 60.3 µM (inactive) | 15.6 µM (inactive) | 20.8 µM (inactive) | 48.2 µM (inactive) | 37.8 µM (inactive) | > 100 µM (inactive) | 31.5 µM (inactive) | > 79.1 µM (inactive)
CCOc1ccc2c(c1)C(/C(C(Cl)=C(Cl)Cl)=[N+](/[O-])OC(=O)c1ccccc1)=N2 | 36.9 µM (inactive) | 30.9 µM (inactive) | > 100 µM (inactive) | 79.3 µM (inactive) | 23 µM (inactive) | 30.8 µM (inactive) | 37.3 µM (inactive) | 35.2 µM (inactive) | 39 µM (inactive) | 58.7 µM (inactive) | 73.1 µM (inactive) | 43.2 µM (inactive) | 44.5 µM (inactive) | 53.1 µM (inactive) | > 100 µM (inactive) | 35.9 µM (inactive) | 76.4 µM (inactive) | 47 µM (inactive) | 99.3 µM (inactive)
CCOC(=O)c1c(N2CCOCC2)[nH]c(=O)c(C(c2ccco2)c2c(O)c(C(=O)OCC)c(N3CCOCC3)[nH]c2=O)c1O | > 100 µM (inactive) | > 100 µM (inactive) | > 100 µM (inactive) | > 100 µM (inactive) | > 100 µM (inactive) | > 100 µM (inactive) | > 100 µM (inactive) | > 100 µM (inactive) | > 100 µM (inactive) | > 100 µM (inactive) | > 100 µM (inactive) | > 100 µM (inactive) | > 100 µM (inactive) | > 100 µM (inactive) | > 100 µM (inactive) | > 100 µM (inactive) | > 100 µM (inactive) | > 100 µM (inactive) | > 100 µM (inactive)
N#CC(=N)c1ncn(-c2ccc(N)cc2)c1N | > 100 µM (inactive) | > 100 µM (inactive) | > 100 µM (inactive) | > 100 µM (inactive) | > 100 µM (inactive) | > 100 µM (inactive) | > 100 µM (inactive) | > 100 µM (inactive) | > 100 µM (inactive) | > 100 µM (inactive) | > 100 µM (inactive) | > 100 µM (inactive) | > 100 µM (inactive) | > 100 µM (inactive) | > 100 µM (inactive) | > 100 µM (inactive) | > 100 µM (inactive) | > 100 µM (inactive) | > 100 µM (inactive)
O=C(Nc1ccc(Br)c2ccccc12)c1ccc2ccccc2c1O | 2.86 µM (inactive) | 1.35 µM (inactive) | 2.52 µM (inactive) | 5.16 µM (inactive) | 19.4 µM (inactive) | 3.37 µM (inactive) | 1.87 µM (inactive) | 1.71 µM (inactive) | 2.32 µM (inactive) | 4.63 µM (inactive) | 3.09 µM (inactive) | 1.95 µM (inactive) | 3.87 µM (inactive) | 6.44 µM (inactive) | 2.51 µM (inactive) | 2.9 µM (inactive) | 2.75 µM (inactive) | 1.77 µM (inactive) | 3.19 µM (inactive)
CC(C)(C)OC(=O)/C=C/[C@@H](CCC(=O)/C=C/[C@H](/C=C\CCCC(=O)O)NC1(c2ccccc2)c2ccccc2-c2ccccc21)O[Si](C)(C)C(C)(C)C | 29.2 µM (inactive) | 13.5 µM (inactive) | 19.2 µM (inactive) | 18.2 µM (inactive) | 17.1 µM (inactive) | 16.7 µM (inactive) | 18.3 µM (inactive) | 18.5 µM (inactive) | 9.16 µM (inactive) | 14 µM (inactive) | 17.8 µM (inactive) | 17.8 µM (inactive) | 17.1 µM (inactive) | 19.4 µM (inactive) | 15.2 µM (inactive) | 18.1 µM (inactive) | 20.5 µM (inactive) | 14.3 µM (inactive) | 24.8 µM (inactive)
COc1ccc(/C(C)=C2\CCCN(Cc3ccccc3)C2)cc1 | 20.2 µM (inactive) | 23 µM (inactive) | 33.7 µM (inactive) | 15.8 µM (inactive) | 27.2 µM (inactive) | 18.6 µM (inactive) | 21.5 µM (inactive) | 13.4 µM (inactive) | 24.4 µM (inactive) | 18.1 µM (inactive) | 28.1 µM (inactive) | 29.2 µM (inactive) | 17.4 µM (inactive) | 20.4 µM (inactive) | 19.9 µM (inactive) | 17 µM (inactive) | 31.4 µM (inactive) | 32 µM (inactive) | 38.8 µM (inactive)
O=c1c2c(-c3ccccc3)onc2n(-c2ccccc2)c(=O)n1-c1ccccc1 | > 100 µM (inactive) | 18.6 µM (inactive) | > 100 µM (inactive) | > 100 µM (inactive) | 32.8 µM (inactive) | 15.1 µM (inactive) | 26.1 µM (inactive) | 15.7 µM (inactive) | > 100 µM (inactive) | 17.1 µM (inactive) | 31.2 µM (inactive) | 19.7 µM (inactive) | 30.1 µM (inactive) | > 100 µM (inactive) | 14.9 µM (inactive) | 17.9 µM (inactive) | 16.4 µM (inactive) | > 100 µM (inactive) | 14.5 µM (inactive)
O=c1[nH]c2c(c(=O)[nH]1)SSC2 | 0.46 µM (active) | 24 µM (inactive) | 25.7 µM (inactive) | 3.14 µM (inactive) | 17.3 µM (inactive) | 19 µM (inactive) | 19.4 µM (inactive) | 17.3 µM (inactive) | 1.3 µM (inactive) | 2 µM (inactive) | 26.5 µM (inactive) | 4.99 µM (inactive) | 3.67 µM (inactive) | 0.275 µM (active) | 11.8 µM (inactive) | 17.9 µM (inactive) | 16.6 µM (inactive) | 25.9 µM (inactive) | 16 µM (inactive)
Nc1cc2c3c(c1)Oc1cc(N)cc4c1C3c1c(cc(N)cc1O4)O2 | 43.4 µM (inactive) | 26.1 µM (inactive) | 63.8 µM (inactive) | 15.7 µM (inactive) | 56.5 µM (inactive) | 20.2 µM (inactive) | 3.07 µM (inactive) | 21.2 µM (inactive) | 39.6 µM (inactive) | 26.9 µM (inactive) | 22 µM (inactive) | 30.5 µM (inactive) | 12.5 µM (inactive) | 15.5 µM (inactive) | 47.2 µM (inactive) | 22.9 µM (inactive) | 29 µM (inactive) | 32.5 µM (inactive) | 41.7 µM (inactive)
COC(=O)C(Cc1ccccc1)NP(=O)(O)OCC1OC(n2cc(Br)c(=O)[nH]c2=O)CC1O (stereo unspecified) | > 100 µM (inactive) | > 100 µM (inactive) | > 100 µM (inactive) | > 100 µM (inactive) | > 100 µM (inactive) | > 100 µM (inactive) | > 100 µM (inactive) | > 100 µM (inactive) | > 100 µM (inactive) | > 100 µM (inactive) | > 100 µM (inactive) | > 100 µM (inactive) | > 100 µM (inactive) | > 100 µM (inactive) | > 100 µM (inactive) | > 100 µM (inactive) | > 100 µM (inactive) | > 100 µM (inactive) | > 100 µM (inactive)
CC(C)C1CC(CO)(CNc2nc(N)nc(Cl)c2/C=N\O)C1 (stereo unspecified) | 13.6 µM (inactive) | 9.27 µM (inactive) | 12.3 µM (inactive) | 16.8 µM (inactive) | 2.35 µM (inactive) | 13.7 µM (inactive) | 14.8 µM (inactive) | 4.53 µM (inactive) | 10.3 µM (inactive) | 13.1 µM (inactive) | 8.51 µM (inactive) | 0.656 µM (active) | 22.4 µM (inactive) | 0.507 µM (active) | 9.27 µM (inactive) | 2.03 µM (inactive) | 20.1 µM (inactive) | 1.76 µM (inactive) | 17.6 µM (inactive)
NC(CCC(=O)c1ccccn1)C(=O)O (stereo unspecified) | > 100 µM (inactive) | > 100 µM (inactive) | > 100 µM (inactive) | > 100 µM (inactive) | > 100 µM (inactive) | > 100 µM (inactive) | > 100 µM (inactive) | > 100 µM (inactive) | > 100 µM (inactive) | > 100 µM (inactive) | > 100 µM (inactive) | > 100 µM (inactive) | > 100 µM (inactive) | > 100 µM (inactive) | > 100 µM (inactive) | > 100 µM (inactive) | > 100 µM (inactive) | > 100 µM (inactive) | > 100 µM (inactive)
O=C1CSC(c2cccc([N+](=O)[O-])c2)N1c1ccc(-c2ccc(-n3c(-c4ccccc4)nc4ccccc4c3=O)cc2)cc1 (stereo unspecified) | 23 µM (inactive) | 21.9 µM (inactive) | 64.7 µM (inactive) | 46.5 µM (inactive) | 25.2 µM (inactive) | 23.3 µM (inactive) | 44.1 µM (inactive) | 25.6 µM (inactive) | 17.2 µM (inactive) | 36.2 µM (inactive) | 27 µM (inactive) | 83.2 µM (inactive) | 41.1 µM (inactive) | 19.7 µM (inactive) | 18.5 µM (inactive) | 21.8 µM (inactive) | > 100 µM (inactive) | 34.6 µM (inactive) | > 100 µM (inactive)
